Results published in patent US10967086B2, “Silver nanoparticle-enhanced photosensitizers as antibiofilm agents” (University Of Cincinnati, priority 2014, dated 2021).
Structures can show the parent of a compound that is named as a salt.

Key:
[1] = Loading efficiency of photosensitizers in the hybrids (UV-Vis absorption); type: physicochemical; details: named photosensitizer loaded into Ag@mSiO2@photosensitizer hybrid; Example 1
Experimental: The loading efficiencies of the photosensitizers in the hybrids were determined by UV-Vis absorption. […] Zeta potential measurements were carried out to further investigate the surface properties of the hybrids.
The morphology of the Ag@mSiO2@photosensitizer hybrids was characterized by a Phillips Biotwin 12 transmission electron microscope (FEI). TEM samples were prepared by directly applying 10 μL of the sample ethanol solution onto a carbon-coated copper grid (300 mesh, EMS) and left to dry at room temperature. UV-Vis absorption spectra were measured using a UV-Vis spectrometer (USB4000-ISS, Ocean Optics). The loading efficiency of photosensitizers was determined by measuring the photosensitizers in the supernatant after centrifugation via UV-Vis absorption spectra. The Ag^+ concentration was measured by a triple quadruple ICP-MS (ICP-QQQ, Agilent Technologies).

T. rubrum (ATCC 28188) = test: Photodynamic inactivation of T. rubrum, LED, plate count; type: cell-based, Tricophyton rubrum
Experimental: The in vitro PDI of T. rubrum (ATCC 28188) was investigated using different concentrations of Ag@mSiO2@HPIX hybrids, pure HPIX and Ag@mSiO2. Control experiments were carried out without the LED illumination. […] Separately, T. rubrum samples were treated with an LED light source (400 nm, 54 mW/cm2), after incubating for 30 min. with different concentrations of the Ag@mSiO2@HPIX hybrids, free HPIX, and Ag@mSiO2, respectively. […] Plate count method was employed to determine the viable fungal count, after the growth of the T. rubrum became visible. […] In these experiments, the pure HPIX and Ag@mSiO2@HPIX hybrids have the same concentration of HPIX while the amounts of Ag in Ag@mSiO2@HPIX hybrids and Ag@mSiO2 was also kept constant. The enhancement of antifungal PDI efficacy of Ag@mSiO2@HPIX hybrids is defined as log10(enhancement)=log10(Ag@mSiO2@HPIX_killing)−log10(Ag@mSiO2_killing)−log10(HPIX_killing)

[2] = system: Staphylococcus epidermidis (ATCC 35984); test: Photodynamic inactivation assay, white light, plate count; type: cell-based
Experimental: (§1) Photodynamic Inactivation Assays. Typically, overnight cultures of Staphylococcus epidermidis (ATCC 35984), Escherichia coli (ATCC 35218), and Acinetobacter baumannii (ATCC 19606) were inoculated into PBS buffer solution (pH=7.4) and mixed with a series of concentrations of Ag@mSiO2@HPIX hybrid, HPIX (dissolved in the same PBS buffer solution), or Ag@mSiO2 nanoparticles. All bacterial suspensions (200 μL) were then placed in the wells of 96-well plates. The final cell concentration of the suspensions was between about 10^6 and 10^7 colony-forming units per mL (CFU/mL). The wells were illuminated with different fluences. After illumination, a plate count was performed. Bacterial viability was determined by a modified version of the Miles and Misra method.
(§2) The suspensions were serially 10-fold diluted with PBS. Then, drops of 10 μL of each dilution were applied onto MH II agar plates. Plates were streaked in triplicate and incubated for 18-24 h at 37° C. in the dark before counting. A non-coherent, white light source with interchangeable fiber bundle (model LC-122, LumaCare) was used in all photoinactivation experiments. The irradiance at the position of the samples was kept at 300 mW/cm^2, as measured by a laser power meter (Model 840011, SPER Scientific).
Ag@mSiO2@HPIX was used as a model system in the PDI study. Ag@mSiO2@HPIX was first tested with S. epidermidis, a Gram-positive bacterium. […]

[3] = system: S. aureus (MRSA) (ATCC BAA44) biofilm; test: Photodynamic inactivation of biofilms, LED, plate count; type: cell-based
Experimental: (§3) Typically, overnight biofilms of Escherichia coli (ATCC 35218), and S. aureus (MRSA) (ATCC BAA44) were washed with PBS buffer solution (pH=7.4), mixed with a series of concentrations of Ag@mSiO2@HPIX hybrid, HPIX (dissolved in the same PBS buffer solution), or Ag@mSiO2 nanoparticles, and these mixtures were incubated for an hour. All biofilms were illuminated with different fluences from a light emitting diode. After illumination, the biofilm was washed to remove the nanoparticle solution or HPIX and disrupted biofilm. A serial dilution was performed and 10 μL of each dilution was plated on an MHB place and incubated for 24 hours at 37° C. Bacterial biofilm viability was determined by a modified version of the Miles and Misra method.
as §2
(§4) The in vitro PDI of MRSA (ATCC BAA44) and E. coli (ATCC 35218) was investigated using different concentrations of Ag@mSiO2@HPIX hybrids, pure HPIX and Ag@mSiO2. Control experiments were carried out without the LED illumination. […] Separately, MRSA and E. coli samples were treated with an LED light source (400 nm, 1000 mW/cm2), after incubating for 1 h. with different concentrations of the Ag@mSiO2@HPIX hybrids, free HPIX, and Ag@mSiO2, respectively. […] Plate count method was employed to determine the viable biofilm count, after the growth of the biofilm became visible. […] In these experiments, the pure HPIX and Ag@mSiO2@HPIX hybrids have the same concentration of HPIX while the amounts of Ag in Ag@mSiO2@HPIX hybrids and Ag@mSiO2 was also kept constant.
(§5) The enhancement of antibiofilm PDI efficacy of Ag@mSiO2@HPIX hybrids is defined as log10(enhancement)=log10(Ag@mSiO2@HPIX_killing)−log10(Ag@mSiO2_killing)−log10(HPIX_killing)

[4] = system: Escherichia coli (ATCC 35218) biofilm; test: as above; type: cell-based
Experimental: as §3, §2, §4, §5

[5] = system: Escherichia coli (ATCC 35218); test: Photodynamic inactivation assay, white light, plate count; type: cell-based; details: Example 2
Experimental: as §1
as §2, with “Scientific). […]” for “Scientific).”

[6] = system: Acinetobacter baumannii (ATCC 19606); test: as above; type: cell-based; details: Example 2
Experimental: as §1
as §2, with “Scientific). […]” for “Scientific).”

[7] = dark control, tested concentrations
[8] = LED 400 nm, 1000 mW/cm2 (blue LED 1 W/cm^2, up to 90 min), after 1 h incubation

O=C([O-])c1ccc(C2=C3C=CC(=N3)C(c3ccc(C(=O)[O-])cc3)=C3C=CC(=N3)C(=c3ccc(=C([O-])[O-])cc3)c3ccc([n-]3)C(c3ccc(C(=O)[O-])cc3)=C3C=CC2=N3)cc1.[67Cu+2].[H+].[H+].[H+].[H+] [Cu-TCPP, Cu(II) meso-tetra(4-carboxyphenyl) porphine]
loading efficiency [1]: 260.5 µg/mg

CC1=C(CCC(=O)O)c2cc3[nH]c(cc4nc(cc5[nH]c(cc1n2)c(C)c5C(C)O)C(C)=C4C(C)O)c(C)c3CCC(=O)O (stereo not shown) [HPIX, hematoporphyrin IX dihydrochloride]
loading efficiency [1]: 27.4 µg/mg | PDI efficacy under LED illumination (T. rubrum (ATCC 28188); LED 400 nm, 54 mW/cm2, after 30 min incubation): negligible PDI efficacy | antifungal effect without LED illumination (T. rubrum (ATCC 28188); [7]): None of the Ag@mSiO2@HPIX hybrids, pure HPIX or Ag@mSiO2 at the tested concentrations shows antifungal effect | antibacterial effect without light illumination ([2]; parallel dark experiments): negligible antibacterial effect | PDI efficacy on biofilm under LED illumination [3, 8]: negligible PDI efficacy | antibiofilm effects without LED illumination [3, 7]: None of the Ag@mSiO2@HPIX hybrids, pure HPIX or Ag@mSiO2 at the tested concentrations shows antibiofilm effects | PDI efficacy on biofilm under LED illumination [4, 8]: negligible PDI efficacy | antibiofilm effects without LED illumination [4, 7]: None of the Ag@mSiO2@HPIX hybrids, pure HPIX or Ag@mSiO2 at the tested concentrations shows antibiofilm effects

CCC1=C(C)c2cc3[nH]c(cc4[nH]c(cc5nc(cc1n2)C(C)=C5CC)c(C)c4CCC(=O)O)c(CCC(=O)O)c3C [PIX, meso-porphyrin IX]
loading efficiency [1]: 750 µg/mg

O=C1OC2(c3cc(I)c(O)c(I)c3Oc3c2cc(I)c(O)c3I)c2c(Cl)c(Cl)c(Cl)c(Cl)c21 [RB, rose bengal]
loading efficiency [1]: 33.6 µg/mg

Cc1cc2nc3c(=O)[nH]c(=O)nc-3n(C[C@H](O)[C@H](O)[C@H](O)CO)c2cc1C [Riboflavin, riboflavin]
killing efficacy under visible light and near-infrared irradiations [5]: needs visible light excitation to display rather moderate antibacterial effect | killing efficacy under visible light and near-infrared irradiations [6]: needs visible light excitation to display rather moderate antibacterial effect | killing efficacy under visible light and near-infrared irradiations ([2]; Example 2): needs visible light excitation to display rather moderate antibacterial effect

O=C(O)c1ccc(-c2c3nc(c(-c4ccc(C(=O)O)cc4)c4ccc([nH]4)c(-c4ccc(C(=O)O)cc4)c4nc(c(-c5ccc(C(=O)O)cc5)c5ccc2[nH]5)C=C4)C=C3)cc1 [TCPP, meso-tetra(4-carboxyphenyl) porphine]
loading efficiency [1]: 140.7 µg/mg

tris(2,2′-bipyridyl)dichlororuthenium(II) hexahydrate [RuBPy]
loading efficiency [1]: 28.3 µg/mg
